Experimental data from ChEMBL document CHEMBL5252657, “Artefenomel Regioisomer RLA-3107 Is a Promising Lead for the Discovery of Next-Generation Endoperoxide Antimalarials” (ACS Med Chem Lett, 2023).
The source made the active and inactive calls. No cut-off for these calls is given here.

What was measured:
Plasmodium falciparum = experiment: Antiplasmodial activity against chloroquine-resistant ring stage Plasmodium falciparum W2 infected in human erythrocytes assessed as reduction in parasite growth incubated for 48 hrs by YOYO-1 dye based flow cytometric analysis; assay type: functional, organism-based; conditions: W2, Erythrocyte
Plasmodium berghei [1] = experiment: Antiplasmodial activity against Plasmodium berghei infected in Swiss Webster mouse model assessed as reduction in parasitemia at 6 mg/kg, po administered once daily for 4 days and measured after 30 days by Giemsa staining based microscopic analysis; assay type: functional, organism-based; conditions: time 30.0 day
Plasmodium berghei [2] = experiment: Antiplasmodial activity against Plasmodium berghei infected in Swiss Webster mouse model assessed as reduction in parasitemia at 10 mg/kg, po administered once daily for 4 days and measured after 30 days by Giemsa staining based microscopic analysis; assay type: functional, organism-based; conditions: time 30.0 day
Plasmodium berghei [3] = experiment: Antiplasmodial activity against Plasmodium berghei infected in Swiss Webster mouse model assessed as reduction in parasitemia at 20 mg/kg, po administered as single dose and measured after 30 days by Giemsa staining based microscopic analysis; assay type: functional, organism-based; conditions: time 30.0 day
Plasmodium berghei [4] = experiment: Antiplasmodial activity against Plasmodium berghei infected in Swiss Webster mouse model assessed as reduction in parasitemia at 80 mg/kg, po administered as single dose and measured after 11 days by Giemsa staining based microscopic analysis; assay type: functional, organism-based; conditions: time 11.0 day
Plasmodium berghei [5] = experiment: Antiplasmodial activity against Plasmodium berghei infected in Swiss Webster mouse model assessed as reduction in parasitemia at 80 mg/kg, po administered as single dose and measured after 30 days by Giemsa staining based microscopic analysis; assay type: functional, organism-based; conditions: time 30.0 day
Plasmodium berghei [6] = experiment: Antiplasmodial activity against Plasmodium berghei infected in Swiss Webster mouse model assessed as reduction in parasitemia at 4 mg/kg, po administered once daily for 4 days and measured after 11 days by Giemsa staining based microscopic analysis; assay type: functional, organism-based; conditions: time 11.0 day
Plasmodium berghei [7] = experiment: Antiplasmodial activity against Plasmodium berghei infected in Swiss Webster mouse model assessed as reduction in parasitemia at 2 mg/kg, po administered once daily for 4 days and measured after 11 days by Giemsa staining based microscopic analysis; assay type: functional, organism-based; conditions: time 11.0 day
Plasmodium berghei [8] = experiment: Antiplasmodial activity against Plasmodium berghei infected in Swiss Webster mouse model assessed as reduction in parasitemia at 30 mg/kg, po administered as single dose and measured after 30 days by Giemsa staining based microscopic analysis; assay type: functional, organism-based; conditions: time 30.0 day
Plasmodium berghei [9] = experiment: Antiplasmodial activity against Plasmodium berghei infected in Swiss Webster mouse model assessed as reduction in parasitemia at 30 mg/kg, po administered as single dose and measured after 11 days by Giemsa staining based microscopic analysis; assay type: functional, organism-based; conditions: time 11.0 day
Plasmodium berghei [10] = experiment: Antiplasmodial activity against Plasmodium berghei infected in Swiss Webster mouse model assessed as reduction in parasitemia at 2 mg/kg, po administered once daily for 4 days and measured after 30 days by Giemsa staining based microscopic analysis; assay type: functional, organism-based; conditions: time 30.0 day
[11] = Stability in human liver microsomes assessed as intrinsic clearance at 1 uM measured upto 60 mins by LC-MS/MS analysis; assay type: ADME, Microsome; conditions: read-out: CLH
Plasmodium berghei [12] = experiment: Antiplasmodial activity against Plasmodium berghei infected in Swiss Webster mouse model assessed as reduction in parasitemia at 4 mg/kg, po administered once daily for 4 days and measured after 30 days by Giemsa staining based microscopic analysis; assay type: functional, organism-based; conditions: time 30.0 day
Plasmodium berghei [13] = experiment: Antiplasmodial activity against Plasmodium berghei infected in Swiss Webster mouse model assessed as reduction in parasitemia at 6 mg/kg, po administered once daily for 4 days and measured after 11 days by Giemsa staining based microscopic analysis; assay type: functional, organism-based; conditions: time 11.0 day
[14] = Aqueous solubility of the compound in PBS at pH 7.4; assay type: physicochemical
Plasmodium berghei [15] = experiment: Antiplasmodial activity against Plasmodium berghei infected in Swiss Webster mouse model assessed as reduction in parasitemia at 40 mg/kg, po administered as single dose and measured after 30 days by Giemsa staining based microscopic analysis; assay type: functional, organism-based; conditions: time 30.0 day
Plasmodium berghei [16] = experiment: Antiplasmodial activity against Plasmodium berghei infected in Swiss Webster mouse model assessed as reduction in parasitemia at 40 mg/kg, po administered as single dose and measured after 11 days by Giemsa staining based microscopic analysis; assay type: functional, organism-based; conditions: time 11.0 day
Plasmodium berghei [17] = experiment: Antiplasmodial activity against Plasmodium berghei infected in Swiss Webster mouse model assessed as reduction in parasitemia at 10 mg/kg, po administered once daily for 4 days and measured after 11 days by Giemsa staining based microscopic analysis; assay type: functional, organism-based; conditions: time 11.0 day

| SMILES | EC50 (Plasmodium falciparum) [µM] | Activity (Plasmodium berghei [1]) | Activity (Plasmodium berghei [2]) | Activity (Plasmodium berghei [3]) | Activity (Plasmodium berghei [4]) | Activity (Plasmodium berghei [5]) | Activity (Plasmodium berghei [6]) | Activity (Plasmodium berghei [7]) | Activity (Plasmodium berghei [8]) | Activity (Plasmodium berghei [9]) | Activity (Plasmodium berghei [10]) | microsomal CLint at 1 µM [11] [µL/min/mg] | Activity (Plasmodium berghei [12]) | Activity (Plasmodium berghei [13]) | solubility [14] [µM] | Activity (Plasmodium berghei [15]) | Activity (Plasmodium berghei [16]) | Activity (Plasmodium berghei [17]) |
| --- | --- | --- | --- | --- | --- | --- | --- | --- | --- | --- | --- | --- | --- | --- | --- | --- | --- | --- |
| C[C@@H]1CC[C@H]2[C@@H](C)C(=O)O[C@@H]3O[C@@]4(C)CC[C@@H]1[C@]32OO4 [ARTEMISININ] | 0.0173 | – | – | – | – | – | – | – | – | – | – | – | – | – | – | – | – | – |
| c1cc([C@H]2CCC[C@@]3(C2)OOC2(O3)C3CC4CC(C3)CC2C4)ccc1OCCN1CCOCC1 (stereo not given in full) | 0.0241 | inactive | inactive | inactive | Active | Active | inactive | inactive | inactive | Active | inactive | 21.3 | inactive | inactive | – | – | – | – |
| c1cc([C@H]2CC[C@@]3(CC2)OOC2(O3)C3CC4CC(C3)CC2C4)ccc1OCCN1CCOCC1 (stereo not given in full) | 0.0112 | Active | Active | Active | Active | Active | Active | – | Active | Active | – | – | – | Active | < 2.5 | Active | Active | Active |
| O=C([O-])Cc1ccccc1Nc1c(Cl)cccc1Cl.[Na+] [DICLOFENAC SODIUM] | – | – | – | – | – | – | – | – | – | – | – | – | – | – | 199 | – | – | – |
